Results as given in patent publication US8946265B2, “Process for the preparation of lenalidomide” (Generics [UK] Limited, priority 2009, dated 2015).
Read-outs that look alike come from different tables or passages of the source.

How the values were obtained:
[1] = Hygroscopicity of the crystalline form; format: physicochemical; conditions: solid crystalline form
[2] = Thermodynamic stability and interconversion of polymorphs; format: physicochemical

hygroscopicity [1]	polymorphic conversion in aqueous solvent systems ([2]; aqueous solvent systems)	thermodynamic stability relative to other polymorphs ([2]; listed as form A)	polymorphic conversion under heating ([2]; conditions of heating)	Compound	thermodynamic stability relative to other polymorphs [2]
non-hygroscopic	convert to form B	most thermodynamically stable form	–	Nc1cccc2c1CN(C1CCC(=O)NC1=O)C2=O (centres unmarked) [lenalidomide crystalline form A, 3-(4-amino-1-oxo-1,3-dihydro-isoindol-2-yl)-piperidine-2,6-dione]	most thermodynamically stable anhydrous polymorph
–	–	–	convert to form A	Nc1cccc2c1CN(C1CCC(=O)NC1=O)C2=O (centres unmarked) [form B, 3-(4-amino-1-oxo-1,3-dihydro-isoindol-2-yl)-piperidine-2,6-dione]	–
